The term solubility denotes the concentration that dissolves in the medium under given conditions. As usually defined, the Ki is a measure of affinity in units of concentration, obtained from inhibition or displacement.

The text below walks through data of patent publication US8288423B2, “FXa inhibitors with cyclic amidines as P4 subunit, processes for their preparations, and pharmaceutical compositions and derivatives thereof” (Legochem Bioscience Ltd., priority 2007, dated 2012).

One data set has as its system thrombus formation. In words: % inhibition against thrombus formation, arteriovenous shunt model in white rats. Particulars: orally administered 1 hour before opening of the shunt; 15 minutes circulation; versus control group. More on the design: concentration or dose not given beside the values. The class given is in vivo, white rats (male Sprague Dawley). The method, then: 3) Determination of % Inhibition Against Thrombus Formation by Means of Arteriovenous Shunt Model ([…]) in White Rats Antithrombotic effect of the compounds according to the present invention was evaluated by using arteriovenous shunt model in white rats. The animals used were male Sprague Dawleys with the body weight of 200-250 g. For one day before the experiment, the animals were fasted. Five to six animals were used for each test group. The compound of Example was orally administered 1 hour before opening of the shunt. The rats were anesthetized by abdominal administration of Rompun (Bay HealthCare) and Chloral hydrate or urethane in an amount of 12 and 50 mg per kg of the body weight. Into the left carotid artery and right jugular vein of the white rat, a polyethylene(PE)-60 tubing filled with physiological saline was inserted and secured. Both ends of individual PE tubing were connected to a silicone tubing having a length of 5 cm in which a cotton thread have been incorporated diagonally, and the shunt was open to provide circulation for 15 minutes. The shunt was then compressed by using jaws, and the cotton thread was carefully removed and the thrombus generated was weighed. The % inhibition of thrombus formation was calculated by using the weight of thrombus obtained from white rats of the control group to which a solution of oral administration was administered.

For data set [1] the following is noted: background art; cited from earlier work.
The test system of a further data set is plasma protein. In words: Determination of plasma protein binding (ultrafiltration, LC-MS/MS). Particulars: citrated plasma, 37° C., 60 minutes, Ultracel-10 filter. The class given is in vitro ADME. How it is done:
Citrated plasma was purchased from Daejeon-Chungnam Blood Institute (located at Daejeon, Korea). A compound solution (500 μM in DMSO) (10 μL), according to the invention Was added to the plasma (1 mL), and the reaction was carried out at 37° C. and 120 rpm for 60 minutes. To three wells of Ultracel-10 filter plate (Millipore), the reaction solution was transferred (300 μL each). Then, the plasma solution (70 μL) was taken, and the total concentration of the compound was quantified by means of LC-MS/MS (API3000, ABI). After centrifuging the Ultracel-10 filter plate at 37° C. and 2000×g for 45 minutes, the filtrate was taken to determine the concentration of the compound which was not bound to the plasma protein. Percentage of plasma protein binding was obtained via Equation (2): % Protein binding=(1−concentration of compound in filtrate/concentration of compound in entire solution)×100% Free=100−% Protein binding [Equation 2]

In a further data set the test system is plasma. As to the kind of experiment: Measurement of aPTT (activated partial thromboplastin time) in plasma. It is filed as biochemical. More on the design: unit not given here. Particulars: STA-PTT, CaCl2, 37° C., unit not given. How it is done:
The effect of oxazolidinone derivatives with cyclic amidines represented by Chemical Formula (1) according to the invention on blood coagulation was compared by measuring PT (prothrombin time) and aPTT (activated Partial Thromboplastin Time). The procedure of measurement is described below. A solution (5 μL) of the oxazolidinone derivative with cyclic amidine group represented by Chemical Formula (1) according to the invention (in a various concentration gradient, 5% DMSO solution) was added to the plasma ([…]), and the reaction was carried out at 37° C. for 2 minutes. STA-PTT (Diagnostica Stago) (50 μL) was then added thereto. After the reaction at 37° C. for additional 5 minutes, 25 mM CaCl2 (50 μL) was added thereto, and the duration for plasma coagulation was measured. The duration for plasma coagulation was determined as the point when the absorbance at 340 nm reaches 0.1.

The test system of a further data set is Citrated plasma. As to the kind of experiment: Measurement of PT (prothrombin time) in citrated plasma. It is filed as biochemical. Particulars: STA-Neoplastine, 37° C., unit not given (2×PT value). The method, then:
The effect of oxazolidinone derivatives with cyclic amidines represented by Chemical Formula (1) according to the invention on blood coagulation was compared by measuring PT (prothrombin time) and aPTT (activated Partial Thromboplastin Time). The procedure of measurement is described below. Citrated plasma was purchased from Daejeon-Chungnam Blood Institute (located at Daejeon, Korea). A compound solution (5 μL) according to the invention (in a various concentration gradient, 5% DMSO solution) was added to the plasma ([…]), and the reaction was carried out at 37° C. for 5 minutes. STA-Neoplastine (Diagnostica Stago) (100 μL) was then added thereto, and the duration for plasma coagulation was measured. The duration for plasma coagulation is determined as the point when the absorbance at 340 nm reaches 0.1.

Data set [2] is described as follows: Determination of aqueous solubility. Particulars: aqueous with cosolvent or surfactant or cyclodextrin, kinetic from dmso stock; 100 mM potassium phosphate buffer pH 7.4, 5% DMSO, final concentration 500 μM, ambient temperature 90 minutes. The class given is physicochemical. How it is done:
The plate was agitated at ambient temperature for 90 minutes with a rate of 225 rpm. After agitation, the content of the plate was filtered with application of pressure. The filtrate (160 μL) was individually transferred to a uv-96 well plate (Costar), and mixed with 40 μL of acetonitrile, and then agitated at ambient temperature for 10 minutes with a rate of 225 rpm. By means of a plate reader (Molecular Devices, Spectramax 190), absorbances at the wavelengths of 280, 300, 320, 340, 360 and 800 nm were measured. As a reference solution, employed was 100 mM potassium phosphate buffer (pH 7.4) containing 20% acetonitrile added by 10 mM DMSO solution (8 μL).

Another data set concerns the target T1, factor Xa (Homo sapiens, UniProt P00742).
T1 construct: purchased Enzyme Research Laboratories
Particulars: background art; cited from earlier work.

In brackets after ≈: the same amount, converted by molar mass.

T1 sequence (P00742 235-488 limits assumed): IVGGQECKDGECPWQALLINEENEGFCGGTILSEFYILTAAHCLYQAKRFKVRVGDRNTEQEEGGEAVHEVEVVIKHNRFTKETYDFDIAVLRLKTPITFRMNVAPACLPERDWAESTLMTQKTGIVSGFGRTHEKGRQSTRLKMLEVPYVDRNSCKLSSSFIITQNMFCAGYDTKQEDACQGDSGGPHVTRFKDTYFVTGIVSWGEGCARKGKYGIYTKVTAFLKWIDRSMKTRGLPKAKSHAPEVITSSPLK
T1 sequence (P00742 41-179 partner limits assumed): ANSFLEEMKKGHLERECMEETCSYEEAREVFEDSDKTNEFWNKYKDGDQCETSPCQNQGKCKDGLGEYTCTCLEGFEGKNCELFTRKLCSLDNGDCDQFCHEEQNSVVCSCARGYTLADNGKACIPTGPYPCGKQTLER

Take `O=C(NC[C@H]1CN(c2ccc(N3CCOCC3=O)cc2)C(=O)O1)c1ccc(Cl)s1` [Rivaroxaban, reference compound]: the “% Inhibition (of thrombus formation)” value in the data set on thrombus formation was 83%. Moreover, the solubility entry in data set [1] is recorded as “about 8 mg/L”. Besides, the “Plasma protein binding (% Free)” value in the data set with plasma protein was 9 % Free. The same molecule had an APTT in the data set on plasma of 0.39. The molecule also returned a PT with Citrated plasma of 0.09. The solubility at 90 min in data set [2] was 50 µM (≈ 21.8 µg/mL).

B1: antistasin (protein, UniProt P15358 18-136, looked up)
Antistasin: QGPFGPGCEEAGCPEGSACNIITDRCTCSGVRCRMHCPHGFQRSRYGCEFCKCRLEPMKATCDISECPEGMMCSRLTNKCDCKIDINCRKTCPNGLKRDKLGCEYCECRPKRKLIPRLS
As to B1, in the data set with factor Xa, the Ki was 0.05 nM.
